Experimental data as given in ChEMBL document CHEMBL1201862, “PubChem BioAssay data set” (2004).
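Five compound concentrations were applied to cells in 96-well plates for 48 hours; endpoints were derived by simple linear interpolation of the resulting dose-response curve. At the GI50, growth is halved.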 The source made the active and inactive calls. Cut-off read from the data, not from the text of the source: active = GI50 up to about 1.1 µM and inactive = higher.

Experiments:
Experiment in all cases: NCI anticancer screen, dose series, 48 h
SF-295 = test system: SF-295
MDA-N = test system: MDA-N
UO-31 = test system: UO-31
KM12 = test system: KM12
OVCAR-8 = test system: OVCAR-8
786-0 = test system: 786-0
Hs-578T = test system: Hs-578T
DMS-273 = test system: DMS-273
DLD-1 = test system: DLD-1
IGROV-1 = test system: IGROV-1
NCI-H226 = test system: NCI-H226
SR = test system: SR
Malme-3M = test system: Malme-3M
LOX IMVI = test system: LOX IMVI
HT-29 = test system: HT-29
HOP-62 = test system: HOP-62
M14 = test system: M14
DU-145 = test system: DU-145
SNB-19 = test system: SNB-19
SK-MEL-2 = test system: SK-MEL-2
HOP-92 = test system: HOP-92
T47D = test system: T47D
SW-620 = test system: SW-620
KM-20L2 = test system: KM-20L2
A549 = test system: A549
NCI/ADR-RES = test system: NCI/ADR-RES
SK-MEL-28 = test system: SK-MEL-28
SF-539 = test system: SF-539
LXFL 529 = test system: LXFL 529
XF498 = test system: XF498
SN12C = test system: SN12C
UACC-62 = test system: UACC-62
PC-3 = test system: PC-3
HCT-15 = test system: HCT-15
OVCAR-3 = test system: OVCAR-3
DMS-114 = test system: DMS-114
HL-60 = test system: HL-60
MOLT-4 = test system: MOLT-4
MDA-MB-231 = test system: MDA-MB-231
SK-OV-3 = test system: SK-OV-3
MDA-MB-435 = test system: MDA-MB-435
NCI-H522 = test system: NCI-H522
RXF 393 = test system: RXF 393
SF-268 = test system: SF-268
ACHN = test system: ACHN
A498 = test system: A498
U-251 = test system: U-251
CCRF-CEM = test system: CCRF-CEM
HCC 2998 = test system: HCC 2998
NCI-H460 = test system: NCI-H460
HCT-116 = test system: HCT-116
SK-MEL-5 = test system: SK-MEL-5
RPMI-8226 = test system: RPMI-8226
BT-549 = test system: BT-549
M19-MEL = test system: M19-MEL
MCF7 = test system: MCF7
NCI-H23 = test system: NCI-H23
SNB-78 = test system: SNB-78
TK-10 = test system: TK-10
COLO 205 = test system: COLO 205
OVCAR-4 = test system: OVCAR-4
OVCAR-5 = test system: OVCAR-5
HOP-18 = test system: HOP-18
K562 = test system: K562
EKVX = test system: EKVX
CAKI-1 = test system: CAKI-1

In the case of `CC[C@]12C=CCN3CCC4(c5cc([C@@]6(C(=O)OC)CC7CN(CCc8c6[nH]c6ccccc86)C[C@@H]6CCCC[C@H]76)c(OC)cc5N(C)C4[C@](O)(C(=O)OC)C1OC(C)=O)[C@@H]32` (some centres undefined), the GI50 (SF-295) is reported as < 0.01 µM (active), the GI50 (MDA-N) is reported as < 0.01 µM (active) and the GI50 (UO-31) is reported as < 0.0299 µM (active). The GI50 (KM12) was < 0.01 µM (active), the GI50 (OVCAR-8) was < 0.01 µM (active) and the GI50 (786-0) was < 0.01 µM (active). For the same molecule, the GI50 (Hs-578T) was < 0.01 µM (active), the GI50 (DMS-273) was < 0.01 µM (active) and the GI50 (DLD-1) was < 0.01 µM (active). For the same molecule, the GI50 (IGROV-1) was < 0.01 µM (active), the GI50 (NCI-H226) was < 0.01 µM (active) and the GI50 (SR) was < 0.01 µM (active). The GI50 (Malme-3M) was < 0.01 µM (active), the GI50 (LOX IMVI) was < 0.01 µM (active) and the GI50 (HT-29) was < 0.01 µM (active). The GI50 (HOP-62) was < 0.01 µM (active), the GI50 (M14) was < 0.01 µM (active) and the GI50 (DU-145) was < 0.01 µM (active). For the same molecule, the GI50 (SNB-19) was < 0.01 µM (active), the GI50 (SK-MEL-2) was < 0.01 µM (active) and the GI50 (HOP-92) was 0.0259 µM (active). The GI50 (T47D) was 18.2 µM (inactive), the GI50 (SW-620) was < 0.01 µM (active) and the GI50 (KM-20L2) was < 0.01 µM (active). The GI50 (A549) was < 0.01 µM (active), the GI50 (NCI/ADR-RES) was 0.0148 µM (active) and the GI50 (SK-MEL-28) was 2.11 µM (inactive). The GI50 (SF-539) was < 0.01 µM (active), the GI50 (LXFL 529) was < 0.01 µM (active) and the GI50 (XF498) was < 0.01 µM (active). For the same molecule, the GI50 (SN12C) was < 0.01 µM (active), the GI50 (UACC-62) was < 0.01 µM (active) and the GI50 (PC-3) was < 0.01 µM (active). The GI50 (HCT-15) was less than 0.01 µM, the GI50 (OVCAR-3) was < 0.01 µM (active) and the GI50 (DMS-114) was < 0.01 µM (active). For the same molecule, the GI50 (HL-60) was < 0.01 µM (active), the GI50 (MOLT-4) was < 0.01 µM (active) and the GI50 (MDA-MB-231) was < 0.01 µM (active). The GI50 (SK-OV-3) was < 0.01 µM (active), the GI50 (MDA-MB-435) was < 0.01 µM (active) and the GI50 (NCI-H522) was < 0.01 µM (active). For the same molecule, the GI50 (RXF 393) was < 0.01 µM (active), the GI50 (SF-268) was < 0.01 µM (active) and the GI50 (ACHN) was < 0.01 µM (active). For the same molecule, the GI50 (A498) was < 0.01 µM (active), the GI50 (U-251) was < 0.01 µM (active) and the GI50 (CCRF-CEM) was < 0.01 µM (active). For the same molecule, the GI50 (HCC 2998) was < 0.01 µM (active), the GI50 (NCI-H460) was < 0.01 µM (active) and the GI50 (HCT-116) was < 0.01 µM (active). The GI50 (SK-MEL-5) was < 0.01 µM (active), the GI50 (RPMI-8226) was < 0.01 µM (active) and the GI50 (BT-549) was 1.32 µM (inactive). For the same molecule, the GI50 (M19-MEL) was < 0.01 µM (active), the GI50 (MCF7) was < 0.01 µM (active) and the GI50 (NCI-H23) was < 0.01 µM (active). For the same molecule, the GI50 (SNB-78) was < 0.01 µM (active), the GI50 (TK-10) was < 0.01 µM (active) and the GI50 (COLO 205) was < 0.01 µM (active). The GI50 (OVCAR-4) was 5.2 µM (inactive).

With `NC(CCSCCF)C(=O)O` (centres undefined) the GI50 (UO-31) was > 100 µM (inactive), the GI50 (KM12) was > 100 µM (inactive) and the GI50 (786-0) was > 100 µM (inactive). For the same molecule, the GI50 (DMS-273) was > 100 µM (inactive), the GI50 (IGROV-1) was > 100 µM (inactive) and the GI50 (NCI-H226) was > 100 µM (inactive). The GI50 (SR) was > 100 µM (inactive), the GI50 (LOX IMVI) was > 100 µM (inactive) and the GI50 (HT-29) was > 100 µM (inactive). For the same molecule, the GI50 (HOP-62) was > 100 µM (inactive), the GI50 (M14) was > 100 µM (inactive) and the GI50 (SNB-19) was > 100 µM (inactive). For the same molecule, the GI50 (SK-MEL-2) was > 100 µM (inactive), the GI50 (OVCAR-5) was > 100 µM (inactive) and the GI50 (HOP-18) was > 100 µM (inactive). For the same molecule, the GI50 (HOP-92) was > 100 µM (inactive), the GI50 (SW-620) was > 100 µM (inactive) and the GI50 (KM-20L2) was > 100 µM (inactive). The GI50 (A549) was > 100 µM (inactive), the GI50 (SK-MEL-28) was > 100 µM (inactive) and the GI50 (SF-539) was > 100 µM (inactive). For the same molecule, the GI50 (LXFL 529) was > 100 µM (inactive), the GI50 (SN12C) was > 100 µM (inactive) and the GI50 (UACC-62) was > 100 µM (inactive). The GI50 (K562) was > 100 µM (inactive), the GI50 (HCT-15) was greater than 100 µM and the GI50 (EKVX) was > 100 µM (inactive). The GI50 (OVCAR-3) was > 100 µM (inactive), the GI50 (DMS-114) was > 100 µM (inactive) and the GI50 (HL-60) was > 100 µM (inactive). For the same molecule, the GI50 (MOLT-4) was > 100 µM (inactive), the GI50 (SK-OV-3) was > 100 µM (inactive) and the GI50 (NCI-H522) was > 100 µM (inactive). The GI50 (SF-268) was > 100 µM (inactive), the GI50 (ACHN) was > 100 µM (inactive) and the GI50 (A498) was > 100 µM (inactive). For the same molecule, the GI50 (U-251) was > 100 µM (inactive), the GI50 (CCRF-CEM) was > 100 µM (inactive) and the GI50 (NCI-H460) was > 100 µM (inactive). The GI50 (HCT-116) was > 100 µM (inactive), the GI50 (RPMI-8226) was > 100 µM (inactive) and the GI50 (M19-MEL) was > 100 µM (inactive). The GI50 (NCI-H23) was > 100 µM (inactive), the GI50 (SNB-78) was > 100 µM (inactive) and the GI50 (TK-10) was > 100 µM (inactive). For the same molecule, the GI50 (CAKI-1) was > 100 µM (inactive), the GI50 (COLO 205) was > 100 µM (inactive) and the GI50 (OVCAR-4) was > 100 µM (inactive).
